{"source": "patent US20220389515A1", "about": "“USE OF BIOMARKERS TO PREDICT CLINICAL SENSITIVITY TO 2-(4-CHLOROPHENYL)-N-((2-(2,6-DIOXOPIPERIDIN-3-YL)-1-OXOISOINDOLIN-5-YL)METHYL)-2,2-DIFLUOROACETAMIDE” (priority 2019, published 2022)", "test_system": "U937 cells stably expressing Cas9", "assay": "Genome-wide CRISPR-Cas9 screen of Compound D response", "type": "cell-based, human", "description": "FIG. 4A illustrates the schematic showing the design of the genome-wide CRISPR screen to identify molecular determinants of Compound D response. FIG. 4B illustrates the cell proliferation curve of U937-Cas9 cells transduced with the lentiviral sgRNA library and treated with DMSO or Compound D. Three days post-transduction, cells were treated with DMSO or 10 μM Compound D for 9 days. FIG. 4C illustrates normalized sgRNA read count comparison of different treatment conditions and technical replicates on day 3 and day 12 post-transduction of the lentiviral sgRNA library. 150 k sgRNAs are used in the scatter plots. Numbers in the upper right boxes indicate the Pearson correlation coefficient between samples. “***” indicates the correlation p-value is <0.001. sgRNAs targeting UBE2G1 or CRBN were shown in green and red, respectively. FIG. 4D illustrates pathway enrichment analysis of genes enriched by Compound D treatment with log 2 fold change (log 2FC)>2 and false discovery rate (FDR)<0.05 relative to the DMSO control. The color and size of the dots represent adjusted significance level and gene ratio respectively. Gene ratios refer to the number of input genes annotated to an individual pathway as a ratio of all input genes annotated to any Reactome pathway. […] The X axis denotes the Compound D enrichment score shown as log 2FC; the Y axis denotes the gene essentiality score shown as log 2FC (T12_DMSO vs T3_DMSO). Some of these genes were grouped into 10 functional modules with different color coding. […] Enriched pathways from the Reactome database were identified using Fisher's exact test and were selected by adjusted p-value (FDR)<0.05. Pathway nodes are color-coded with different shades of red according to their statistical significance. The grey nodes in the graph depict pathway genes that were enriched by Compound D treatment. The core enriched pathways modulating the response to Compound D are highlighted with green circles. FIGS. 4G and 4H show the log 2FC values of sgRNAs targeting Compound D enriched genes in the functional modules as indicated. […]"}
{"smiles": "O=C1CCC(N2Cc3cc(CNC(=O)C(F)(F)c4ccc(Cl)cc4)ccc3C2=O)C(=O)N1", "note": "(stereo not drawn) [Compound D, 2-(4-chlorophenyl)-N-((2-(2,6-dioxopiperidin-3-yl)-1-oxoisoindolin-5-yl)methyl)-2,2-difluoroacetamide]", "values": [{"measurement": "growth of U937 cells transduced with the lentiviral CRISPR library", "setting": "10 μM, 9 days", "value": "growth arrest of U937 cells"}, {"measurement": "genes whose knockout conferred resistance (sgRNA enrichment)", "setting": "U937-Cas9, 1 μM or 10 μM", "value": "knockout of CRBN, TSC1, TSC2, ILF2, ILF3, ATF4, GCN2, DDIT4 or GCN1L1 genes conferred resistance to lethal doses of Compound D"}, {"measurement": "genes whose knockout enhanced sensitivity (sgRNA drop-out)", "setting": "U937-Cas9, sensitivity screen", "value": "knockout of RPTOR, MTOR, RICTOR, GSPT1 or DDX5 enhanced sensitivity to lethal doses of Compound D"}]}
